These results are taken from patent publication US4939177A, “Use of avarol for the control of AIDS and ARC” (Merz + Co. GmbH & Co., priority 1986, dated 1990).

Data set [1] relates to H9-cells infected with HTLV-III. The data set can be described thus: Growth of HTLV-III infected H9 cells. The class given is cell-based, human. To be noted: for Cell Concentration: infected H9 cells, four days, controls infected 0.5, uninfected 1.3. How it is done: For this, the H9 cell line was used, it consisting of a cloned OKT4+ T-cell line in which the AIDS virus propagates (M. Popovic, M. G. Sarngadharan, E. Reed and R. C. Gallo; Science 224, 497-500 (1984)).
H9-cells (M. Popovic, M. G. Sarngadharan, E. Reed, R. C. Gallo, Science: 224, 1984, 497-500) were treated with Polybren® (hexadimethrinbromide available on the market; 2 μg/ml) for 30 minutes at 37° C., washed free of Polybren and infected with 2×10^8 HTLV-III virus particles (isolated from H9 cell cultures by the method of M. Popovic; see above) per 4×10^5 H9 cells. Some assays which were not treated with drugs were used as positive controls, while different concentrations of the compound to be tested (avarone or avarol and their derivatives) were added to the test samples. The HTLV-III reverse transcriptase activity of these cultures was analyzed in the manner described above.
H9-cells as well as H9-cells infected with HTLV-III were used in a concentration of 0.2×10^6 cells/ml of culture medium for the inoculating of a culture medium. After incubation for four days, the density of the H9-cells was 1.3×10^6 cells/ml, while the density of the H9-cells infected with HTLV-III was only 0.5×10^6 cells/ml; these two values formed the control values.
Thereupon samples of H9-HTLV-III cells, 0.2×10^6 cells/ml, were treated for four days with different concentrations of avarol.

The test system of data set [2] is human peripheral blood lymphocytes (IgG). The experiment in a line: In vitro IgG production by peripheral blood lymphocytes. The class given is cell-based. The method, then: Human peripheral blood lymphocytes (6×10^5 cells/ml) were cultured in the presence of 0 to 2 μg/ml of pokeweed mitogen (PWM; Sigma no. 9379) in Dulbeccos minimum essential medium, supplemented with 20% fetal calf serum, for 6 days. The assays were performed in a final volume of 200 μl in microtiter plates (Dynatech; M129B) (Muller et al., Eur. J. Cancer Clin. Oncol. 22: 473-476; 1986). Avarol in a concentration range of 0-3 μg/ml was added at time 0 or 3 days after starting the culture. The supernatants were harvested and assayed for human immunoglobulin content.
The culture supernatants were assayed by the enzyme-linked immunosorbent assay (Houtman et al., Clin. Exp. Immunol. 62: 696-704; 1985) using anti-human IgG (Dakopatts, Hamburg; P214) and anti-human IgM (Dakopatts; P215). These antibodies were conjugated to peroxidase. Bound enzyme activity was measured using 2,2'-azino-bis(3-ethylbenzthiazolinesulfonic acid) (Sigma no. A-1888) as substrate.

For data set [3], the system named is DTH to sheep red blood cells (SRBC) in NMRI mice. The data set can be described thus: Delayed-type hypersensitivity to sheep red blood cells. The class given is in vivo, mouse. The method, then: DTH was produced according to the method of Lagrange et al. (J. Exp. Med. 139: 528-542; 1974) and Liew (Eur. J. Immunol. 7, 714-718; 1977). Male NMRI mice (20-23 g, 10 animals/group) were immunized with 10^8 SRBC/40 μl into one foot pad (day 0). Four days later 10^9 SRBC/40 μl were injected into the other foot pad. After 24 hours, paw size was measured with a dial gauge caliper Odi-Test OOT (H. C. Kroeplin, Schluchtern, Germany). Avarol (in 0.15% [w/v] methylcellulose) was administered daily i.p. either from day -2 to +1 or from day +2 to +4. The level of DTH was expressed as foot pad increase, determined after 24 hrs; and it is given in mm. Non-treated groups were injected i.p. with methylcellulose only. Treated groups were compared with the controls using the U-test of Wilcoxon et al. (Sachs, L. Angewandte Statistik, Springer-Verlag, Berlin; 1984).

Data set [4] in a line: Chemical nature and biological activity of radioactive product in rat blood (HPLC; L5178y system). The class given is in vivo. The note with it: iv, after circulation in the body for 22 hours, read-out: modification to a biologically-inactive form. How it is done: These concentrations were determined on the basis of radioactivity. Moreover, the chemical nature of the radioactive product was identified by high-pressure liquid chromatography and found to consist of over 90% of Avarol. In addition, the biological activity of the compound in the blood was determined after extraction with ethyl acetate and estimated in the L5178y cell system in vitro (Muller, W.E.G. et al.; Comp. Biochem. Physiol. 80C, 47-52; 1985). Using this system, the biological activity of the compound, present in the blood, was determined and converted on a gram basis. Using this approach the concentration in the blood was only 5-15% lower than that determined on the basis of radioactivity.

The next data set concerns IgG titer. The experiment in a line: Serum IgG titer of SRBC-immunized mice. The class given is in vivo, mouse. To be noted: 30 mg/kg i.p., untreated 4. The method, then: The plaque test of Jerne and Nordin (Science 140: 405-406, 1963) was used with the modification given by Cunningham and Szenberg (Immunolog. 14: 599-601; 1968). Briefly, 8 male NMRI mice per group (20-22 g) were immunized on day 0 by i.p. injection of 5×10^8 SRBC in 0.5 ml saline. Treatment with avarol was done i.p. either from day 0 to day +4 or from day -4 to day 0. One hour after the last drug administration, the animals were killed by a blow on the head and bled. The spleens were removed and a single cell suspension was prepared by teasing the pooled spleens through a 120-μm mesh sieve. After lysing the erythrocytes by 0.15M NH4 Cl, the cells were washed twice in Hank's balanced salt solution containing 29 ml of 7.5% NaHCO3 and 10 ml of 1M HEPES buffer solution per one liter. The cells were resuspended in 2 ml per spleen. Six Cunningham chambers per group were filled with a mixture of 0.5 ml of a suitable dilution of spleen cells (generally 1:100), 0.5 ml of a suspension of SRBC (10^9 /ml) and 125 μl of normal guinea pig complement. After 90-120 min of incubation at 37° C., the number of plaques was counted. Plaques per spleen or per 10^6 spleen cells were calculated.
The pooled blood of 8 mice was centrifuged to obtain the serum. IgM and IgG titers were measured with the mercaptoethanol method (Hudson, L. and Hay, F. C. Practical Immunology, Blackwell Sci., Oxford; 1983).

Take `CC1=CCC[C@H]2[C@](C)(Cc3cc(O)ccc3O)[C@@H](C)CC[C@]12C` [Avarol, 2-[(1R)-1,2,3,4,4a,7,8,8aα-octahydro-1β,2β,4aβ,5-tetramethyl-1-naphthylmethyl]-1,4-benzenediol]: the “growth rate of H9-HTLV-III cells” value in data set [1] (about 0.01 μg/ml) is recorded as “increase the growth rate of H9-HTLV-III cells to values which lie within the range of the control”. Further, the “Cell Concentration” value in data set [1] (0.1 μg/ml) stood at 1.42e+06 mL⁻¹; in data set [1] (1 μg/ml) it was 1.09e+06 mL⁻¹. The “IgG production, in words” value is “significant increase” in data set [2] (0.3 or 1 μg/ml, irrespective of PWM) and “turned to normal values” in data set [2] (higher avarol concentrations). Moreover, the IgG synthesized in data set [2] (avarol 0.3 μg/ml, PWM +, 0 to 6 days) came to 6.7 ± 1.5 µg/mL; in data set [2] (avarol 0.3 μg/ml, PWM +, 3 to 6 days), 7.9 ± 1.9 µg/mL; in data set [2] (avarol 0.3 μg/ml, PWM -, 0 to 6 days), 2.1 ± 0.5 µg/mL; in data set [2] (avarol 0.3 μg/ml, PWM -, 3 to 6 days), 2.0 ± 0.5 µg/mL; in data set [2] (avarol 1.0 μg/ml, PWM +, 0 to 6 days), 7.0 ± 1.6 µg/mL; in data set [2] (avarol 1.0 μg/ml, PWM +, 3 to 6 days), 8.5 ± 1.9 µg/mL. Moreover, the IgG synthesized came to 2.3 ± 0.6 µg/mL in data set [2] (avarol 1.0 μg/ml, PWM -, 0 to 6 days); 2.2 ± 0.5 µg/mL in data set [2] (avarol 1.0 μg/ml, PWM -, 3 to 6 days); 3.9 ± 1.0 µg/mL in data set [2] (avarol 3.0 μg/ml, PWM +, 0 to 6 days); 4.9 ± 1.0 µg/mL in data set [2] (avarol 3.0 μg/ml, PWM +, 3 to 6 days); 1.2 ± 0.3 µg/mL in data set [2] (avarol 3.0 μg/ml, PWM -, 0 to 6 days); 1.3 ± 0.3 µg/mL in data set [2] (avarol 3.0 μg/ml, PWM -, 3 to 6 days). Further, the “DTH to SRBC, immunosuppressive influence” value in data set [3] (day +2 to +4, doses higher than 10 mg/kg i.p.) is “weak but significant immunosuppressive effect”; in data set [3] (day -2 to +1, up to daily doses of 30 mg/kg i.p.) it was “no significant immunosuppressive influence”. Also, the metabolised at 22 h in data set [4] is not above 15%. Further, the “Titer IgG” value is recorded as 2 with IgG titer (from 0 to +4 days) and 4 in the data set with IgG titer (from -4 to 0 days).
